Measurements from patent publication US20250135026A1, “Antibody Drug Conjugates” (BeiGene Switzerland GmbH, priority 2021, published 2025).
Where two headings read alike, the source gives them in different places.

Experiments:
cathepsin B = cathepsin B (Homo sapiens, UniProt P07858); test: Cathepsin B mediated rhodamine release; assay type: biochemical; details: 150 nM, 0.3 unit activated cathepsin B, pH 5.5, 37° C., FIG. 21
Procedure: CTSB was activated by incubation at ambient temperature for 15 min with 30 mM dithiothreitol and 15 mM EDTA at PH5.5.
Reaction buffer preparation: 25 mM sodium acetate & 1 mM EDTA, PH5.5.
Adding 150 nM NAcCys-13 & NAcCys-14 & NAcCys-15 & NAcCys-16 & NAcCys-17 and 0.3 unit activated cathepsin B mixture according to the experiment template.
The reaction mixtures were incubated at 37° C. immediately in the reader, then start reading using the kinetic set-up described. (TECAN SPARK: excitation/emission: 485/520 nm) (120 cycles, every one min) Gain Manual: 77%
Data analysis by GraphPad Prism 9 is illustrated in FIG. 21.

A375 = test: Compounds cellular killing (Cell Titer-Glo, 6 days, 2D); assay type: cell-based, human; details: for cell-killing activity compared with Dxd: A375
Procedure: (§1) The cell line was grown in a humidified 5% CO2 atmosphere at 37° C., and was regularly tested for the presence of mycoplasma with MycoAlert™ PLUS Mycoplasma Detection Kit (Lonza, LT07-710).
(§2) Incubation at 37° C., 5% CO2, overnight.
(§3) Adding the fresh growth-medium containing the varying concentrations of compounds, 50 ul/well.
(§4) Incubation at 37° C., 5% CO2, 6 days.
(§5) The cell viability detected by Cell Titer-Glo (Promega, G7573). Add 70 µL/well of CellTiter-Glo® Reagent in each well.
(§6) Allow the plates to incubate at room temperature for 10 minutes to stabilize luminescent signal.
(§7) Analyze with Microplate Reader.

Calu-6 = test: as above; assay type: cell-based; details: for cell-killing activity compared with Dxd: Calu-6
Procedure: as §1, §2, §3, §4, §5, §6, §7

HCC1569 = test: Payload cellular killing, 2D; assay type: cell-based; details: HCC1569, 2D (HER3 +++)
MDA-MB-453 = test: Payload cellular killing, 2D; assay type: cell-based, human; details: MDA-MB-453, 2D (HER3 +++)
Procedure: as §1

[1] = Table 28, payload, A375, 2D (Her3 ++)
[2] = Table 29, payload, A375, 6d, 2D (Her3++)
[3] = Table 28, payload, Calu-6, 2D (HER3 neg.)
[4] = Table 29, payload, Clau6, 6d, 2D (Her3 neg)

Compound	cathepsin B mediated rhodamine release rate, rank (cathepsin B)	EC50 (A375; [1]) [nM]	EC50 (A375; [2]) [nM]	EC50 (Calu-6; [3]) [nM]	EC50 (Calu-6; [4]) [nM]	EC50 (HCC1569; Table 28, payload) [nM]	cell-killing activity compared with Dxd (A375)	EC50 (A375; Table 21, A375) [nM]	cell-killing activity compared with Dxd (Calu-6)	EC50 (Calu-6; Table 21, Calu-6) [nM]	further results
CCOC(=O)Nc1ccc2c(c1)Oc1cc(NC(=O)OCc3ccc(NC(=O)[C@H](CCCNC(N)=O)NC(=O)[C@@H](NC(=O)[C@H](CP(=O)(O)O)NC(=O)CCOCCOCCOCCN4C(=O)CC(SC[C@H](NC(C)=O)C(=O)O)C4=O)C(C)C)cc3)ccc1C21OC(=O)c2ccccc21 (stereo partly shown) [NAcCys-17]	NAcCys-15˜NAcCys-13 (benchmark)>NAcCys-14>NAcCys-17	–	–	–	–	–	–	–	–	–	–
CC[C@@]1(O)C(=O)OCc2c1cc1n(c2=O)Cc2c-1nc1cc(F)c(C)c3c1c2[C@@H](NC(=O)C(C)(F)CO)CC3 (single isomer, unassigned) [Isomer 1 of Compounds 68 & 69]	–	4.5	4.5	1.8	1.8	3.2	–	–	–	–	Emax (A375; Homo sapiens, A-375, Table 29, payload, A375, 6d, 2D (Her3++), read-out: Emax): 99.9%; Emax (Calu-6; Homo sapiens, Calu-6, Table 28, payload, Calu-6, 2D (HER3 neg.), read-out: Emax): 98.5%; Emax (Calu-6; Homo sapiens, Calu-6, […], Table 29, payload, Clau6, 6d, 2D (Her3 neg), read-out: Emax): 98.5%; Emax (HCC1569; Homo sapiens, HCC1569, Table 28, payload, read-out: Emax): 92%; EC50 (MDA-MB-453; Homo sapiens, MDA-MB-453, Table 28, payload): 2.8 nM; Emax (MDA-MB-453; Homo sapiens, MDA-MB-453, Table 28, payload, read-out: Emax): 97.9%
CC[C@@]1(O)C(=O)OCc2c1cc1n(c2=O)Cc2c-1nc1cc(F)c(C)c3c1c2[C@@H](NC(=O)C(C)(F)CO)CC3 (single isomer, unassigned) [Example 69]	–	–	–	–	–	–	stronger cell-killing activity than Dxd	1.5	stronger cell-killing activity than Dxd	0.6	Emax (A375; Table 21, A375): 99.9%; Emax (Calu-6; Table 21, Calu-6): 98.2%
CC[C@@]1(O)C(=O)OCc2c1cc1n(c2=O)Cc2c-1nc1cc(F)c(C)c3c1c2[C@@H](NC(=O)C(C)(F)CO)CC3 (single isomer, unassigned) [Example 68]	–	–	–	–	–	–	less potent than Dxd	4.5	less potent than Dxd	1.8	Emax (A375; Homo sapiens, A-375, Table 21, A375, read-out: Emax): 99.9%; Emax (Calu-6; Homo sapiens, Calu-6, Table 21, Calu-6, read-out: Emax): 98.5%
CC[C@@]1(O)C(=O)OCc2c1cc1n(c2=O)Cc2c-1nc1cc(F)c(C)c3c1c2[C@@H](NC(=O)C(C)(F)CO)CC3 (single isomer, unassigned) [Isomer 2 of Compounds 68 & 69]	–	1.5	1.5	0.6	0.6	0.7	–	–	–	–	Emax (A375; [1]): 99.9%; Emax (A375; [2]): 99.9%; Emax (Calu-6; [3]): 98.2%; Emax (Calu-6; [4]): 98.2%; Emax (HCC1569; Table 28, payload): 91.6%; EC50 (MDA-MB-453; Table 28, payload): 1.5 nM; Emax (MDA-MB-453; Table 28, payload): 98.6%
CCOC(=O)Nc1ccc2c(c1)Oc1cc(NC(=O)OCc3ccc(NC(=O)[C@H](CCCNC(N)=O)NC(=O)[C@@H](NC(=O)[C@H](CNS(N)(=O)=O)NC(=O)CCOCCOCCOCCN4C(=O)CC(SC[C@H](NC(C)=O)C(=O)O)C4=O)C(C)C)cc3)ccc1C21OC(=O)c2ccccc21 (stereo partly shown) [NAcCys-14]	NAcCys-15˜NAcCys-13 (benchmark)>NAcCys-14>NAcCys-17	–	–	–	–	–	–	–	–	–	–
